Results as given in paper PMC7450938, “Prenatal to early postnatal neurotrophic treatment prevents Alzheimer-like behavior and pathology in mice” (Alzheimer's Research & Therapy, 2020).

Tests used:
[1] = commercial service (APREDICA, Watertown, MA); cited from earlier work
Iba-1, GFAP = assay: Western blots of Iba-1 and GFAP in hippocampus; type: in vivo, mouse; settings: for increase of GFAP: 3xTg-AD mice, P021 diet E8-PND21, n = 3-4/group; for expression of Iba-1: among groups
Description: (§1) We treated 2- to 3-month-old pregnant 3xTg-AD and WT mothers with compound P021 in mouse chow, or with vehicle feed as control at E8 until their offspring/pups reached PND21, at which point the offspring were separated and put on standard mouse chow (Fig. 1). Treatment was administered as 60 nmol peptide/g formulated diet (Research Diets; New Brunswick, NJ, USA). The vehicle-treated control animals received the same diet but without the peptide. On average, each mouse consumed ~ 2.7 g diet/day.
(§2) The tissue from the left cerebral hemisphere from each mouse stored at− 80 °C was homogenized in a Teflon-glass homogenizer to generate 10% (w/v) homogenate. The pre-chilled homogenization buffer contained 50 mM Tris–HCl (pH 7.4), 8.5% sucrose, 2 mM EDTA, 2 mM EGTA, 10 mM β-mercaptoethanol plus the following protease and phosphatase inhibitors: 0.5 mM AEBSF, 10 μg/mL aprotinin, 10 μg/mL leupeptin, 4 μg/mL pepstatin, 5 mM benzamidine, 20 mM β-glycerophosphate, 50 mM sodium fluoride, 1 mM sodium orthovanadate, and 100 nM okadaic acid. Each homogenate was boiled in 2× Laemmli sample buffer for 5 min, and protein concentration was measured by PierceTM 660-nm protein assay (Thermo Scientific; Rockford, IL, USA).
(§3) The samples were subjected to 10% SDS-PAGE and electro-transferred onto Immobilon-P membranes (EMD Millipore; Billerica, MA, USA). The blots were then probed with primary antibodies (Table 1) and developed with the corresponding HRP-conjugated secondary antibody and enhanced chemiluminescence (Pierce Biotechnology, Rockford, IL, USA). Densitometric quantification of protein bands in Western blots was analyzed using Multi Gauge version 3.0 software (FUJIFILM North America; Valhalla, NY, USA).

Aβ plaques = assay: Aβ immunofluorescence, amyloid plaques in brain sections; type: in vivo, mouse; settings: 22-month-old 3xTg-AD mice, P021 diet E8-PND21
Description: as §1
(§4) The complete right hemisphere was immersion-fixed in 4% paraformaldehyde in 0.1 M PBS for 24–48 h, followed by cryoprotection in a 30% sucrose solution at 4 °C overnight. Later, the 40-μm-thick sagittal sections were cut on a freezing microtome. […]
(§5) Immunofluorescence staining was performed on free-floating sections, and every 12th brain section was chosen for densitometry and quantification. For immunohistochemical quantification, six brain sections of four animals per group were analyzed. All stainings for fluorescence-intensity quantification were carried out under identical conditions, including all tissue samples for a particular staining processed at the same time, and experimental and control sections photographed under identical settings. […]

[2] = system: Ts65Dn trisomic Down syndrome mouse model; settings: Ts65Dn mice, prenatal to early postnatal treatment; cited from earlier work
Excerpt: The prenatal to early postnatal period is highly susceptible to epigenomic dysregulation with implications for health. […] Stress and hormones, such as glucocorticoids, testosterone, and estradiol, mediate the development of the brain during critical prenatal and early postnatal periods.

P-tau (Ser396/404) = assay: PHF-1 immunofluorescence, hippocampal CA1; type: in vivo, mouse; settings: hippocampal CA1 region, 22-month-old 3xTg-AD mice; P021 diet E8-PND21; vs 3xTg-Vh
Description: as §1, §4, §5

[3] = cited from earlier work
Excerpt: A central objective of the field of dementia research is to inhibit, or to at least effectively modify, the course of AD, but at present, no effective treatment or cure for AD is available. CNTF is a pluripotent neurotrophic factor that has a potent effect on the development and maintenance of the nervous system, inducing neuronal survival and differentiation by stimulating gene expression of sensory, sympathetic, and motor neurons. However, the clinical therapeutic usage of recombinant neurotrophic factors is limited because of the insurmountable hurdles of unfavorable pharmacokinetic ...

tau = assay: Western blots of total and hyperphosphorylated tau in hippocampus; type: in vivo, mouse
Description: as §1
The animals were anesthetized with an overdose of sodium pentobarbital (125 mg/kg) and transcardially perfused with 0.1 M phosphate-buffered saline (PBS). After perfusion, the brains were removed from the skull immediately. The left hemisphere was dissected into hippocampus, cerebral cortex, cerebellum, and brain stem; immediately frozen on dry ice; and then stored at − 80 °C for biochemical analysis.
as §2, §3

[4] = no method and no reference printed for this sentence, next sentence ref 22, cited from earlier work
Description: P021 is quite stable in artificial gastric juice (~ 90% during 30 min) and in artificial intestinal juice (> 95% during 120 min).

[5] = system: NR1, NR2A, NR2B, GluR1, GluR2&3, p-CREB; assay: Western blots of glutamate receptors and CREB in hippocampus; type: in vivo, mouse
Description: as §1, §2, §3

[6] = system: PSD95, synapsin, synaptophysin, MAP2; assay: Western blots of dendritic and synaptic markers in hippocampus; type: in vivo, mouse; settings: 3xTg-AD mice
Description: as §1, §2, §3

[7] = 4-month-old 3xTg-AD mice, P021 diet E8-PND21, vs 3xTg-Vh, n = 4
[8] = 22-month-old 3xTg-AD mice, P021 diet E8-PND21
[9] = 22-month-old 3xTg-AD mice, P021 diet E8-PND21, vs 3xTg-Vh, n = 4
[10] = 4 months, 3xTg-AD mice, P021 diet E8-PND21, n = 3-4/group
[11] = 22 months, 3xTg-AD mice, P021 diet E8-PND21, n = 3-4/group
[12] = 4 months, P021 diet E8-PND21, n = 3-4/group

Ac-DGGL^AG-NH2 [P021, 4-mer CNTF small molecule peptide mimetic to which adamantylated glycine was added at the C-terminal]
crossing of the blood-brain barrier [1]: enough P021 crossed the BBB to exert its effect in the brain
increase of GFAP (Iba-1, GFAP; 4 months): rescued
expression of Iba-1 (Iba-1, GFAP; 4 months): no significant changes
increase of GFAP (Iba-1, GFAP; 22 months): rescued
expression of Iba-1 (Iba-1, GFAP; 22 months): no significant changes
plaque-occupied area (Aβ immunofluorescence) (Aβ plaques; one half of the brain, 6 sections per mouse, n = 4 mice): significantly decreased
amyloid plaques detected by Aβ antibody (Aβ plaques; subiculum, piriform cortex, forebrain and hippocampus, vs 3xTg-Vh): markedly reduced
developmental delay and cognitive impairment at adult age [2]: rescues developmental delay and at adult age cognitive impairment
PHF-1 immunofluorescence, percent area (P-tau (Ser396/404)): attenuated
BBB permeability [3]: BBB-permeable
solubility in water [3]: water-soluble
systemic adverse effects [3]: does not induce the systemic adverse effects associated with recombinant CNTF or BDNF
pharmacokinetic properties ([3]; oral administration): suitable pharmacokinetic properties for oral administration
human-specific tau (antibody 43D) (tau; [7]): decreased
tau hyperphosphorylation at Ser202/Thr205 (antibody AT8) (tau; [7]): decrease
total tau (antibody R134d) (tau; [7]): decreased
human tau (antibody 43D) (tau; [8]): did not change significantly
hyperphosphorylated tau (antibody pT212) (tau; [8]): did not change significantly
tau hyperphosphorylation at Ser202/Thr205 (antibody AT8) (tau; [9]): decreased
tau hyperphosphorylation at Ser-396/404 (antibody PHF-1) (tau; [9]): decreased
total tau (antibody R134d) (tau; [9]): only an insignificant decrease
stability in artificial gastric juice ([4]; during 30 min): ~ 90%
stability in artificial intestinal juice ([4]; during 120 min): > 95%
level of GluR1 [5, 10]: increased
level of NR1 [5, 10]: increased
level of NR2A [5, 10]: increased
level of phosphorylated CREB (p-CREB) [5, 10]: increased
level of GluR2&3 ([5]; 4 months, among groups): no significant changes
level of NR2B ([5]; 4 months, among groups): no significant changes
level of NR1 [5, 11]: increased
level of NR2A [5, 11]: increased
level of p-CREB [5, 11]: increased
level of GluR1 ([5]; 22 months, among groups): no significant changes
level of GluR2 and 3 ([5]; 22 months, among groups): no significant changes
level of NR2B ([5]; 22 months, among groups): no significant changes
MAP2 deficit [6, 12]: only the PSD 95 deficit was rescued
PSD95 deficit [6, 12]: rescued
synapsin deficit [6, 12]: only the PSD 95 deficit was rescued
synaptophysin deficit [6, 12]: only the PSD 95 deficit was rescued
levels of PSD95, synapsin, synaptophysin, and MAP2 ([6]; 22 months, P021 diet E8-PND21, not significant): a trend for an increase
